Where two headings read alike, the source gives them in different places.
How the values were obtained:
prostate line LNCap = assay: In vitro cell culture growth assay (MTS), LNCap; type: cell-based; settings: Homo sapiens, LNCaP, 72 h, LNCap cells, three days after drug treatment
Summary of the method: (§1)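 Growth is reported as percent of vehicle-treated control grown in the same plate, with viability determined by metabolic conversion of MTS dye and absorbance read at 490 nm. Compounds were applied one day after plating and left for three days.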

breast line MDA468 = assay: In vitro cell culture growth assay (MTS), MDA468; type: cell-based; settings: Homo sapiens, 72 h, MDA468 cells, three days after drug treatment
Summary of the method: as §1

Human mTOR (FLAG-TOR) = molecular target: T1, Human mTOR (FLAG-TOR) (Homo sapiens, UniProt P42345); assay: Human mTOR kinase assay with purified enzyme, DELFIA format; type: biochemical
T1 construct: FLAG
Summary of the method: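 DELFIA readout: Eu-anti-P(T389)-S6K antibody (40 ng/mL, 1 h) on captured His6-S6K from the stopped reaction. Kinase step used purified FLAG-tagged human mTOR with test compound in HEPES (pH 7.4)/MnCl2/DTT buffer, 2 h at room temperature (linear 1–6 h), terminated by EDTA/EGTA.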

PI3K [1] = molecular target: T2, PI3K (Homo sapiens, UniProt P42336); assay: Fluorescence polarization assay for PI3K; type: biochemical; settings: read-out: PI3 Kinase α IC50
T2 construct: PI3 Kinase α IC50; other: PI3 Kinase α; other: PI3 Kinase α isoform, fluorescence polarization
T2 sequence (P42336 whole entry, canonical isoform): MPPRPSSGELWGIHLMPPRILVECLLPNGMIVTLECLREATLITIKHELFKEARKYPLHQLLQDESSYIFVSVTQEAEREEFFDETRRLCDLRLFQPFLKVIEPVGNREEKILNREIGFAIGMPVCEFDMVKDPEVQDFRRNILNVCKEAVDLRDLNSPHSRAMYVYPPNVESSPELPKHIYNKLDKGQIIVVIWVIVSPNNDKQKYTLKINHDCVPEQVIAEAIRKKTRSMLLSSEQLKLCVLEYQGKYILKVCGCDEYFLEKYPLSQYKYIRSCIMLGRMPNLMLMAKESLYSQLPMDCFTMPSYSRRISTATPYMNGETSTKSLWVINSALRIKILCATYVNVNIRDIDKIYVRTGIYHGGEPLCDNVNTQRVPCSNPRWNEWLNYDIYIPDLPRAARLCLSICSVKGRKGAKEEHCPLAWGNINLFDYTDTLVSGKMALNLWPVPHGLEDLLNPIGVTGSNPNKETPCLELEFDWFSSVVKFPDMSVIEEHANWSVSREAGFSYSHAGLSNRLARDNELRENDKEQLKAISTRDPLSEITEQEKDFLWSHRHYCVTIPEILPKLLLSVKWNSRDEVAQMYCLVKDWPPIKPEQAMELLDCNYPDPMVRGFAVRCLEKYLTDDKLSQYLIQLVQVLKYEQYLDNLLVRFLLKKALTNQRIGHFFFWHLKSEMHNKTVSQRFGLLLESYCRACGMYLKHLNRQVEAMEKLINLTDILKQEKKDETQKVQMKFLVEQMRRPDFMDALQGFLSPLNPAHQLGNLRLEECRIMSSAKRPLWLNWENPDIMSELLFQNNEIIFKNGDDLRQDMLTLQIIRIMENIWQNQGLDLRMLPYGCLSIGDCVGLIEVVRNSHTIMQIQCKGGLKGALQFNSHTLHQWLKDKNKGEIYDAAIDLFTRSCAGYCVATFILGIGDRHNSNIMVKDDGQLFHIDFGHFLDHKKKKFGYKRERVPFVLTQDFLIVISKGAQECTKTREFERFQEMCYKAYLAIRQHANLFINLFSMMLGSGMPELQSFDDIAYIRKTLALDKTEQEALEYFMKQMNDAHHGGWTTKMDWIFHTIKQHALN
Summary of the method: (§2)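 Fluorescence-polarization competition readout: after 30–60 min of PIP2/ATP turnover in 1% DMSO, a stop mix with GST-GRP (70 nM) and red probe (10 nM) was added.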

PI3K [2] = molecular target: T3, PI3K (Homo sapiens, UniProt P48736); assay: Fluorescence polarization assay for PI3K; type: biochemical; settings: read-out: PI3 Kinase γ IC50
T3 construct: PI3 Kinase γ IC50; other: PI3 Kinase γ; other: PI3 Kinase γ isoform, fluorescence polarization
T3 sequence (P48736 whole entry, canonical isoform): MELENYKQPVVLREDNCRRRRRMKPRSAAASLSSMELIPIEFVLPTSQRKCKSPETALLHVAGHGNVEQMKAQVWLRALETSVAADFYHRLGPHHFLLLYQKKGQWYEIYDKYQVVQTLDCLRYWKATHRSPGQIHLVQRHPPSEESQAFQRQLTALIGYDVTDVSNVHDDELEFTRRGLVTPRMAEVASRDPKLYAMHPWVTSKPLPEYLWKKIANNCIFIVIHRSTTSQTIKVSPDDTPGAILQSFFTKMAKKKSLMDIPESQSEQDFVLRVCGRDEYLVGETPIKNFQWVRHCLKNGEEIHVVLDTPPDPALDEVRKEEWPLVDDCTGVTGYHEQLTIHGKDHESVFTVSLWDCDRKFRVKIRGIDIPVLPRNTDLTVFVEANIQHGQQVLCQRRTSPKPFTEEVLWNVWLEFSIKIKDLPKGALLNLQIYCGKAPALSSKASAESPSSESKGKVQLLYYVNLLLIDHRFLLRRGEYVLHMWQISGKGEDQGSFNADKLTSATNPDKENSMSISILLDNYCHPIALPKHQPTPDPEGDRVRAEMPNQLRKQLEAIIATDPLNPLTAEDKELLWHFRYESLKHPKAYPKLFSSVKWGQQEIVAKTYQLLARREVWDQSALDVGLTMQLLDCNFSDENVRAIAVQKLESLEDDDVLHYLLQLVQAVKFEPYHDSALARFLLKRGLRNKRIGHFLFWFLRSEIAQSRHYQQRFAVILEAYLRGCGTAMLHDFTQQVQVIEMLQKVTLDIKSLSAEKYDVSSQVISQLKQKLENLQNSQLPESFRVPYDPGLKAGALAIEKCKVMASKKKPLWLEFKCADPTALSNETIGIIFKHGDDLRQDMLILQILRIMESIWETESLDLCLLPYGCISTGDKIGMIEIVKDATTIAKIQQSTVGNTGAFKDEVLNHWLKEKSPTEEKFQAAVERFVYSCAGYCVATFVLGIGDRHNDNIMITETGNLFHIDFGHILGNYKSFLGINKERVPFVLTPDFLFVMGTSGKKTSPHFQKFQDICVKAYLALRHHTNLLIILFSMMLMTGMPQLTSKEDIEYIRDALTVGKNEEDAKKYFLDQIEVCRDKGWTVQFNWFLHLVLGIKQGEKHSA
Summary of the method: as §2

[3] = purified human mTOR enzyme, DELFIA format
[4] = PI3 Kinase α isoform, fluorescence polarization
[5] = PI3 Kinase γ isoform, fluorescence polarization

SMILES | IC50 (prostate line LNCap) [nM] | IC50 (breast line MDA468) [nM] | IC50 (Human mTOR (FLAG-TOR)) [nM] | IC50 (PI3K [1]; PI3 Kinase α) [nM] | IC50 (PI3K [2]; PI3 Kinase γ) [nM] | IC50 (Human mTOR (FLAG-TOR); [3]) [nM] | IC50 (PI3K [1]; [4]) [nM] | IC50 (PI3K [2]; [5]) [nM]
CC(C)OC(=O)N1CCC(n2ncc3c(N4CC5CCC(C4)O5)nc(-c4ccc(NC(=O)NCCO)cc4)nc32)CC1 [Example 69, isopropyl 4-[6-(4-{[(2-hydroxyethyl)carbamoyl]amino}phenyl)-4-(8-oxa-3-azabicyclo[3.2.1]oct-3-yl)-1H-pyrazolo[3,4-d]pyrimidin-1-yl]piperidine-1-carboxylate] | 100 | 195 | 0.17 | 1530 | 11000 | – | – | –
CN1CCN(c2ccc(NC(=O)Nc3ccc(-c4nc(N5C[C@@H]6C[C@H]5CO6)c5cnn(CC(F)(F)F)c5n4)cc3)cc2)CC1 [Example 295, 1-[4-(4-methylpiperazin-1-yl)phenyl]-3-(4-{4-[(1S,4S)-2-oxa-5-azabicyclo[2.2.1]hept-5-yl]-1-(2,2,2-trifluoroethyl)-1H-pyrazolo[3,4-d]pyrimidin-6-yl}phenyl)urea] | 1 | 13 | 2.33 | 410 | 4670 | – | – | –
CN(C)CCn1ncc2c(N3CC4CCC(C3)O4)nc(-c3ccc(NC(=O)Nc4ccc(CCO)cc4)cc3)nc21 [Example 155, 1-(4-{1-[2-(dimethylamino)ethyl]-4-(8-oxa-3-azabicyclo[3.2.1]oct-3-yl)-1H-pyrazolo[3,4-d]pyrimidin-6-yl}phenyl)-3-[4-(2-hydroxyethyl)phenyl]urea] | 1 | 110 | 1.75 | 82 | 1170 | – | – | –
Nc1ccc(-c2nc(N3CC4CCC(C3)O4)c3cnn(CCO)c3n2)cc1 [Example 207, 2-[6-(4-aminophenyl)-4-(8-oxa-3-azabicyclo[3.2.1]oct-3-yl)-1H-pyrazolo[3,4-d]pyrimidin-1-yl]ethanol] | 14000 | 38000 | 145 | 3590 | > 10000 | – | – | –
CN(C)CCCNC(=O)Nc1ccc(-c2nc(N3CC4CCC(C3)O4)c3cnn(C)c3n2)cc1 [Example 59, 1-[3-(dimethylamino)propyl]-3-{4-[1-methyl-4-(8-oxa-3-azabicyclo[3.2.1]oct-3-yl)-1H-pyrazolo[3,4-d]pyrimidin-6-yl]phenyl}urea] | 2900 | 8800 | 100 | 1700 | > 10000 | – | – | –
O=C(Nc1ccc(CO)cc1)Nc1ccc(-c2nc(N3C[C@@H]4C[C@H]3CO4)c3cnn(CC(F)(F)F)c3n2)cc1 [Example 294, 1-[4-(hydroxymethyl)phenyl]-3-(4-{4-[(1S,4S)-2-oxa-5-azabicyclo[2.2.1]hept-5-yl]-1-(2,2,2-trifluoroethyl)-1H-pyrazolo[3,4-d]pyrimidin-6-yl}phenyl)urea] | < 1 | 1 | 0.775 | 220 | 3020 | – | – | –
CC(C)(C)OC(=O)N1CC2CN(c3nc(-c4ccc(NC(=O)Nc5ccncc5)cc4)nc4c3cnn4CC(F)(F)F)CC(C1)O2 [Example 340, tert-butyl 7-[6-{4-[(pyridin-4-ylcarbamoyl)amino]phenyl}-1-(2,2,2-trifluoroethyl)-1H-pyrazolo[3,4-d]pyrimidin-4-yl]-9-oxa-3,7-diazabicyclo[3.3.1]nonane-3-carboxylate] | 5200 | 5200 | – | – | – | 305 | 5080 | 5760
CC(C)OC(=O)N1CCC(n2ncc3c(N4CC5CCC(C4)O5)nc(-c4ccc(NC(=O)Nc5cccnc5)cc4)nc32)CC1 [Example 72, isopropyl 4-[4-(8-oxa-3-azabicyclo[3.2.1]oct-3-yl)-6-{4-[(pyridin-3-ylcarbamoyl)amino]phenyl}-1H-pyrazolo[3,4-d]pyrimidin-1-yl]piperidine-1-carboxylate] | 1.7 | 36 | 0.2 | 324 | 2690 | – | – | –
O=C(Nc1ccc(-c2nc(N3CC4CCC(C3)O4)c3cnn(CC(F)(F)F)c3n2)cc1)Nc1cccc(CO)c1 [Example 255, 1-[3-(hydroxymethyl)phenyl]-3-{4-[4-(8-oxa-3-azabicyclo[3.2.1]oct-3-yl)-1-(2,2,2-trifluoroethyl)-1H-pyrazolo[3,4-d]pyrimidin-6-yl]phenyl}urea] | 6 | 30 | 0.595 | 105 | 730 | – | – | –
CO[C@H]1CC[C@H](n2ncc3c(N4CC5CCC(C4)O5)nc(-c4ccc(NC(=O)Nc5ccc(N6CCN(C)CC6)cc5)cc4)nc32)CC1 (relative stereo) [Example 396, 1-{4-[1-(trans-4-methoxycyclohexyl)-4-(8-oxa-3-azabicyclo[3.2.1]oct-3-yl)-1H-pyrazolo[3,4-d]pyrimidin-6-yl]phenyl}-3-[4-(4-methylpiperazin-1-yl)phenyl]urea] | < 1 | 4 | – | – | – | 0.335 | 145 | 1790
CCOC(=O)N1CCC(n2ncc3c(N4CC5CCC(C4)O5)nc(-c4ccc(NC(=O)Nc5ccccc5)cc4)nc32)CC1 [Example 33, ethyl 4-[4-(8-oxa-3-azabicyclo[3.2.1]oct-3-yl)-6-{4-[(phenylcarbamoyl)amino]phenyl}-1H-pyrazolo[3,4-d]pyrimidin-1-yl]piperidine-1-carboxylate] | 0.9 | 18 | 0.36 | 215 | 4280 | – | – | –
COCC(COC)n1ncc2c(N3CC4CCC(C3)O4)nc(-c3ccc(NC(=O)Nc4ccc(N5CCNCC5)cc4)cc3)nc21 [Example 335, 1-(4-{1-[2-methoxy-1-(methoxymethyl)ethyl]-4-(8-oxa-3-azabicyclo[3.2.1]oct-3-yl)-1H-pyrazolo[3,4-d]pyrimidin-6-yl}phenyl)-3-(4-piperazin-1-ylphenyl)urea] | 28 | 210 | – | – | – | 2.35 | 273 | 4480
COC(=O)N1CCC(n2ncc3c(N4CC5CCC(C4)O5)nc(-c4ccc(NC(=O)OCCO)cc4)nc32)CC1 [Example 112, methyl 4-[6-(4-{[(2-hydroxyethoxy)carbonyl]amino}phenyl)-4-(8-oxa-3-azabicyclo[3.2.1]oct-3-yl)-1H-pyrazolo[3,4-d]pyrimidin-1-yl]piperidine-1-carboxylate] | 40 | 1050 | 0.75 | 1260 | > 10000 | – | – | –
CN1CCN(Cc2cc3nc(-c4ccc(NC(=O)Nc5ccncc5)cc4)nc(N4CC5CCC(C4)O5)c3s2)CC1 [Example 427, 1-(4-{6-[(4-methylpiperazin-1-yl)methyl]-4-(8-oxa-3-azabicyclo[3.2.1]oct-3-yl)thieno[3,2-d]pyrimidin-2-yl}phenyl)-3-pyridin-4-ylurea] | 200 | 390 | – | – | – | 3.7 | 86 | 1270
O=C(Nc1ccc(-c2nc(N3CC4CCC(C3)O4)c3cnn(C4CCN(Cc5cccnc5)CC4)c3n2)cc1)Nc1cccnc1 [Example 18, 1-(4-{4-(8-oxa-3-azabicyclo[3.2.1]oct-3-yl)-1-[1-(pyridin-3-ylmethyl)piperidin-4-yl]-1H-pyrazolo[3,4-d]pyrimidin-6-yl}phenyl)-3-pyridin-3-ylurea] | < 0.8 | < 0.8 | 0.25 | 326 | 3480 | – | – | –
CN(C)CCNC(=O)Nc1ccc(-c2nc(N3CC4CCC(C3)O4)c3cnn(C4CCC5(CC4)OCCO5)c3n2)cc1 [Example 133, 1-[2-(dimethylamino)ethyl]-3-{4-[1-(1,4-dioxaspiro[4.5]dec-8-yl)-4-(8-oxa-3-azabicyclo[3.2.1]oct-3-yl)-1H-pyrazolo[3,4-d]pyrimidin-6-yl]phenyl}urea] | 90 | 700 | 18.5 | 905 | 7640 | – | – | –
O=C(Nc1ccc(-c2nc(N3CC4CCC(C3)O4)c3cnn(CCO)c3n2)cc1)Nc1ccc(N2CCOCC2)nc1 [Example 206, 1-{4-[1-(2-hydroxyethyl)-4-(8-oxa-3-azabicyclo[3.2.1]oct-3-yl)-1H-pyrazolo[3,4-d]pyrimidin-6-yl]phenyl}-3-(6-morpholin-4-ylpyridin-3-yl)urea] | 190 | 120 | 0.7 | 469 | 11800 | – | – | –
CCn1ncc2c(N3CC4CCC(C3)O4)nc(-c3ccc(NC(=O)Nc4ccc(C#N)cc4)cc3)nc21 [Example 190, 1-(4-cyanophenyl)-3-{4-[1-ethyl-4-(8-oxa-3-azabicyclo[3.2.1]oct-3-yl)-1H-pyrazolo[3,4-d]pyrimidin-6-yl]phenyl}urea] | 4 | 33 | 0.505 | 542 | 3050 | – | – | –
N#CCCn1ncc2c(N3CC4CCC(C3)O4)nc(-c3ccc(NC(=O)OCCO)cc3)nc21 [Example 213, 2-hydroxyethyl {4-[1-(2-cyanoethyl)-4-(8-oxa-3-azabicyclo[3.2.1]oct-3-yl)-1H-pyrazolo[3,4-d]pyrimidin-6-yl]phenyl}carbamate] | 150 | 1000 | 1.25 | 4530 | > 10000 | – | – | –

— patent publication US8129371B2, “Thienopyrimidine and pyrazolopyrimidine compounds and their use as mTOR kinase and PI3 kinase inhibitors” (Wyeth LLC, priority 2007, dated 2012)
